The source of these data is patent US20070082880A1 (priority 2005, published 2007).

Bounds are passed on as bounds.

One series has as its target PKCθ (Homo sapiens, UniProt Q04759). The experiment in a line: PKCθ Scintiplate Assay. It is filed as biochemical. To be noted: average value when one or more samples were tested. How it is done: This assay detects the phosphorylation of a biotinylated substrate by kinase utilizing radiolabeled ATP (ATP γ P33). The enzyme is either recombinant full length PKCθ (Panvera, P2996) or the purified recombinant active kinase domain of full length PKCθ (amino acids 362-706). The substrate in this assay is a biotinylated peptide with a sequence of biotin-[…]-CONH2. The assay buffer is composed of 100 mM Hepes, pH7.5, 2 mM MgCl2, 20 mM β-glycerophosphate and 0.008% TritonX 100. A reaction mixture of ATP, ATP γ P33 (PerkinElmer), DTT, lipid activator, and the enzyme is prepared in the assay buffer and added to a 96 well polypropylene plate. The compound (diluted in DMSO in a separate 96-well polypropylene plate) is added to the reaction mixture and incubated at room temperature. Following the incubation, the peptide substrate is added to the reaction mixture to initiate the enzymatic reaction. The reaction is terminated with the addition of a stop solution (10 mM EDTA, 0.2% TritonX100, and 100 mM NaHPO4) and transferred from the assay plate to a washed streptavidin-coated 96 well scintiplate (PerkinElmer). The scintiplate is incubated at room temperature, washed in PBS with 0.1% TritonX 100, and counted in the 1450 Microbeta Trilux (Wallac, Version 2.60). Counts are recorded for each well as corrected counts per minute (CCPM). The counts are considered corrected because they are adjusted according to a P33 normalization protocol, which corrects for efficiency and background differences between the instrument detectors (software version 4.40.01).

Series [1] addresses T1, human PKCθ full length enzyme (Homo sapiens, UniProt Q04759).
T1 construct: human PKCθ full length enzyme (Panvera Catalog No. P2996); purchased Panvera P2996
The experiment in a line: PKCθ IMAP Assay. It is filed as biochemical. To be noted: average value when one or more samples were tested; ATP 6 uM, PKCθ 1 nM. A digest of the protocol:
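Full-length human PKCθ (1 nM final) with 6 uM ATP and 100 nM 5FAM-labelled peptide, 5% DMSO, 3.0 mM DTT in reaction buffer. 25 min at room temperature; IMAP bead binding 20 min, fluorescence polarization read. Compounds 2:1 serially diluted; no-ATP and no-enzyme wells as controls.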

Chain of PKCθ (Q04759 362-706 limits assumed): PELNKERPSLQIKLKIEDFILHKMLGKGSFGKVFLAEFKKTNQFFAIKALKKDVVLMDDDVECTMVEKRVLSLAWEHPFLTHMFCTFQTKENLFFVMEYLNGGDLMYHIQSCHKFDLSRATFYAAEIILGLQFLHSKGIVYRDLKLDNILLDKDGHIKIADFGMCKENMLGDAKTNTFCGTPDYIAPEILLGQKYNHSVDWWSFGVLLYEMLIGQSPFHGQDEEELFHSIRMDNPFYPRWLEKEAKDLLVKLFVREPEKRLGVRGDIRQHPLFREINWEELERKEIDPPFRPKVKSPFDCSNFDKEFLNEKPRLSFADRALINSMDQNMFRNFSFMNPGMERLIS
T1 sequence (Q04759 whole entry): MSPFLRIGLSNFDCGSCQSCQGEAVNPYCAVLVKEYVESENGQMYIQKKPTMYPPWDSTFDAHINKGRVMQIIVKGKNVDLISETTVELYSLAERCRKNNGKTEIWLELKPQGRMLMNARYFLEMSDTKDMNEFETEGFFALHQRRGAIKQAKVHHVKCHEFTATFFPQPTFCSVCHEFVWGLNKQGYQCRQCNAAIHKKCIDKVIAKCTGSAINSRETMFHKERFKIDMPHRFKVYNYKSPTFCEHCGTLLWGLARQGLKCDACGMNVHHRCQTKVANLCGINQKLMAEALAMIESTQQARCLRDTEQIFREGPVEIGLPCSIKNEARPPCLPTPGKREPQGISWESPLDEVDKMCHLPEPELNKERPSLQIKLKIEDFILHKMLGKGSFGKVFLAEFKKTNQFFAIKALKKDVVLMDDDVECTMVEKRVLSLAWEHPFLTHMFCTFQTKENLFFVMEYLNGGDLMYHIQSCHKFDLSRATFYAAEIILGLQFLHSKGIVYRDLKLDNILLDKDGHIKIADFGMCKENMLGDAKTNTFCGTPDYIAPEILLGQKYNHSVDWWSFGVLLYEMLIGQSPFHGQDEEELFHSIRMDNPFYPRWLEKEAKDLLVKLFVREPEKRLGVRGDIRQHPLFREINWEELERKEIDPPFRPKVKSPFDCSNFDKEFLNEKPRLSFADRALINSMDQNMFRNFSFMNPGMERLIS

In turn, `N#Cc1cnc2sc(-c3ccc(CN4CCOCC4)cc3)cc2c1Nc1ccc2[nH]ccc2c1` [Compound 101, 4-(1H-indol-5-ylamino)-2-[(4-morpholin-4-ylmethyl)phenyl]thieno[2,3-b]pyridine-5-carbonitrile] showed a melting point of 251 to 253 °C. The midpoint of inhibition on PKCθ, the IC50, lay at 370 nM. Moreover, the midpoint of inhibition in series [1], the IC50, lay at 400 nM.

For the compound `N#Cc1cnc2sc(-c3ccc(C=O)cc3)cc2c1Nc1ccc2[nH]ccc2c1` [Compound 103, 2-(4-formylphenyl)-4-(1H-indol-5-ylamino)thieno[2,3-b]pyridine-5-carbonitrile], the melting point is above 260 °C. Further, at PKCθ, 51 nM corresponded to half-maximal inhibition (IC50).

Turning to `N#Cc1cnc2sc(-c3ccccc3)cc2c1Nc1ccc2[nH]ccc2c1` [Compound 107, 4-(1H-indol-5-ylamino)-2-phenylthieno[2,3-b]pyridine-5-carbonitrile], the melting point was above 245 °C. On PKCθ, this compound came in with an IC50 of 79 nM. Moreover, the IC50 in series [1] is 460 nM.

For the compound `N#Cc1cnc2sc(-c3ccccc3)cc2c1Nc1cccc2cc[nH]c12` [Compound 109, 4-(1H-indol-7-ylamino)-2-phenylthieno[2,3-b]pyridine-5-carbonitrile], the melting point is above 245 °C. The compound also had an IC50 against PKCθ above 150000 nM.

`N#Cc1cnc2sc(-c3ccccc3)cc2c1Nc1cccc2[nH]ccc12` [Compound 115, 4-(1H-indol-4-ylamino)-2-phenylthieno[2,3-b] pyridine-5-carbonitrile] showed a melting point above 245 °C. Also, the IC50 against PKCθ came to 120 nM.

`N#Cc1cnc2sc(-c3ccccc3)cc2c1NCCc1c[nH]cn1` [Compound 127, 4-{[2-(1H-imidazol-4-yl)ethyl]amino}-2-phenylthieno[2,3-b]pyridine-5-carbonitrile]: the melting point is above 245 °C. Further, the midpoint of inhibition at PKCθ, the IC50, lay at 3000 nM.

`N#Cc1cnc2sc(-c3ccccc3)cc2c1-c1ccc2[nH]ccc2c1` [Compound 131, 4-(1H-indol-5-yl)-2-phenylthieno[2,3-b]pyridine-5-carbonitrile] came in with a melting point above 245 °C. On PKCθ, this compound displayed an IC50 above 300000 nM.

Compound `CN1CCN(Cc2ccc(-c3cc4c(Nc5cccc6[nH]ccc56)c(C#N)cnc4s3)cc2)CC1` [Compound 137, 4-(1H-indol-4-ylamino)-2-{4-[(4-methylpiperazin-1-yl)methyl]phenyl}thieno[2,3-b]pyridine-5-carbonitrile] returned a melting point above 245 °C. On PKCθ, this compound gave an IC50 of 82 nM. In addition, the IC50 in series [1] came to 52 nM.

`CN1CCN(Cc2cccc(-c3cc4c(Nc5cccc6[nH]ccc56)c(C#N)cnc4s3)c2)CC1` [Compound 140, 4-(1H-indol-4-ylamino)-2-{3-[(4-methylpiperazin-1-yl)methyl]phenyl}thieno[2,3-b]pyridine-5-carbonitrile]: the melting point is above 245 °C. On PKCθ, this compound yielded an IC50 of 34 nM. This compound displayed an IC50 in series [1] of 22 nM.

Regarding `CN1CCN(Cc2ccccc2-c2cc3c(Nc4ccc5[nH]ccc5c4)c(C#N)cnc3s2)CC1` [Compound 185, 4-(1H-indol-5-ylamino)-2-{2-[(4-methylpiperazin-1-yl)methyl]phenyl} thieno[2,3-b]pyridine-5-carbonitrile], the melting point lay within 226 to 228 °C. This compound gave an IC50 on PKCθ of 530 nM.

As for `N#Cc1cnc2sc(-c3ccc(CN)cc3)cc2c1Nc1ccc2[nH]ccc2c1` [Compound 188, 2-[4-(aminomethyl)phenyl]-4-(1H-indol-5-ylamino)thieno[2,3-b]pyridine-5-carbonitrile], the melting point was above 260 °C. Moreover, the IC50 on PKCθ was determined as 27 nM. This compound also showed an IC50 in series [1] of 34 nM.

In turn, `CN1CCN(Cc2ccc(-c3cc4c(Nc5ccc6[nH]ccc6c5)c(C#N)cnc4s3)nc2)CC1` [Compound 203, 4-(1H-indol-5-ylamino)-2-{5-[(4-methylpiperazin-1-yl)methyl]pyridine-2-yl}thieno[2,3-b]pyridine-5-carbonitrile] showed a melting point above 245 °C. This compound displayed an IC50 against PKCθ of 110 nM.

As to `CN(C)Cc1cccc(C#Cc2cc3c(Nc4ccc5[nH]ccc5c4)c(C#N)cnc3s2)n1` [Compound 217, 2-({6-[(dimethylamino)methyl]pyridin-2-yl}ethynyl)-4-(1H-indol-5-ylamino)thieno[2,3-b]pyridine-5-carbonitrile], the IC50 at PKCθ was 59 nM; in series [1], 69 nM.

Take `N#Cc1cnc2sc(C#Cc3cccnc3)cc2c1Nc1cccc2[nH]ccc12` [Compound 218, 4-(1H-indol-4-ylamino)-2-(pyridin-3-ylethynyl)thieno[2,3-b]pyridine-5-carbonitrile]: the IC50 at PKCθ came to 34 nM; in series [1], 52 nM.

Regarding `CN1CCN(CCC#Cc2cc3c(Nc4cccc5[nH]ccc45)c(C#N)cnc3s2)CC1` [Compound 222, 4-(1H-indol-4-ylamino)-2-[4-(4-methylpiperazin-1-yl)but-1-yn-1-yl]thieno[2,3-b]pyridine-5-carbonitrile], the IC50 at PKCθ was found to be 170 nM; in series [1], 150 nM.

Take `CN(C)CC#Cc1cc2c(Nc3ccc4[nH]ccc4c3)c(C#N)cnc2s1` [Compound 223, 2-[3-(dimethylamino)prop-1-yn-1-yl]-4-(1H-indol-5-ylamino)thieno[2,3-b]pyridine-5-carbonitrile]: the IC50 against PKCθ was 88 nM; in series [1] it was 1400 nM.

As to `CCN(CC)CC#Cc1cc2c(Nc3ccc4[nH]ccc4c3)c(C#N)cnc2s1` [Compound 225, 2-[3-(diethylamino)prop-1-yn-1-yl]-4-(1H-indol-5-ylamino)thieno[2,3-b]pyridine-5-carbonitrile], the figures for the IC50 (on PKCθ; in series [1]) were 220 nM and 440 nM, respectively.

On to `N#Cc1cnc2sc(C#Cc3ccncc3)cc2c1Nc1ccc2[nH]ccc2c1` [Compound 226, 4-(1H-indol-5-ylamino)-2-(pyridin-4-ylethynyl)thieno[2,3-b]pyridine-5-carbonitrile], for which the IC50 amounted to 76 nM on PKCθ and 570 nM in series [1].

On to `N#Cc1cnc2sc(C#Cc3cn[nH]c3)cc2c1Nc1ccc2[nH]ccc2c1` [Compound 227, 4-(1H-indol-5-ylamino)-2-(1H-pyrazol-4-ylethynyl)thieno[2,3-b]pyridine-5-carbonitrile], for which the IC50 at PKCθ was found to be 150 nM; in series [1] it was 290 nM.

Turning to `CN1CCN(CCC#Cc2csc3ncc(C#N)c(Nc4ccc5[nH]ccc5c4)c23)CC1` [Compound 244, 4-(1H-indol-5-ylamino)-3-[4-(4-methylpiperazin-1-yl)but-1-yn-1-yl]thieno[2,3-b]pyridine-5-carbonitrile], the melting point was in the range of 184 to 186 °C. The compound further had an IC50 against PKCθ of 560 nM. It took 570 nM to reach half-maximal inhibition in series [1] (IC50).
